Measurements published in article doi:10.1101/2024.10.07.617055v4 (biorxiv, 2026).
Read-outs that look alike come from different tables or passages of the source.

Key:
6H5L_RA1 = experiment: retro-aldol fluorescence assay; type: biochemical, synthetic construct; conditions: 50 mM sodium phosphate, 150 mM NaCl, 7.5% DMSO, pH 8, 29 °C
6H5L [1] = experiment: retro-aldol fluorescence assay; type: biochemical, synthetic construct; conditions: 50 mM sodium phosphate, 150 mM NaCl, 7.5% DMSO, pH 8, 29 °C
6H5L_Top = experiment: retro-aldol fluorescence assay; type: biochemical, synthetic construct; conditions: 50 mM sodium phosphate, 150 mM NaCl, 7.5% DMSO, pH 8, 29 °C
6H5L_RA2 = experiment: retro-aldol fluorescence assay; type: biochemical, synthetic construct; conditions: 50 mM sodium phosphate, 150 mM NaCl, 7.5% DMSO, pH 8, 29 °C
6H5L [2] = conditions: 6H5L_K223; 50 mM sodium phosphate, 150 mM NaCl, 7.5% DMSO, pH 8, 29 °C

COc1ccc2cc(C(O)CC(C)=O)ccc2c1 (racemic) [compound 3, 4-hydroxy-4-(6-methoxy-2-naphthyl)-2-butanone]
Km (6H5L_RA1): 1040 ± 128 µM | Km (6H5L [1]): 371 ± 62 µM | Km (6H5L_Top): 453 ± 49.3 µM | Km (6H5L_RA2): 1550 ± 225 µM | Km (6H5L [2]): 967 ± 211 µM
